According to the supplement of paper PMC13380429:
Structures can show the parent of a compound that is named as a salt. ± gives the standard deviation of the averaged measurements.

What was measured:
Conditions in all cases: 72 h
[1] = system: HepG2; assay: drug sensitivity score (DSS) for viability; higher = more toxic; extreme values may be limits of the assay
[2] = system: Vero E6; assay: as above
[3] = system: Calu-3; assay: as above
[4] = system: U2OS; assay: as above
[5] = system: Caco-2; assay: as above
[6] = system: HepG2; assay: cell viability relative to DMSO; higher = less toxic
[7] = system: Vero E6; assay: as above
[8] = system: Calu-3; assay: as above
[9] = system: U2OS; assay: as above
[10] = system: Caco-2; assay: as above
[11] = system: HepG2; assay: relative viability EC50 (midpoint between 100% and the lowest measured viability); higher = less toxic
[12] = system: Vero E6; assay: as above
[13] = system: Calu-3; assay: as above
[14] = system: U2OS; assay: as above
[15] = system: Caco-2; assay: as above

| Compound | drug sensitivity score [1] | drug sensitivity score [2] | drug sensitivity score [3] | drug sensitivity score [4] | drug sensitivity score [5] | cell viability ([6]; 1 nM) [%] | cell viability ([6]; 10 nM) [%] | cell viability ([6]; 100 nM) [%] | cell viability ([6]; 1000 nM) [%] | cell viability ([6]; 10000 nM) [%] | cell viability ([7]; 1 nM) [%] | cell viability ([7]; 10 nM) [%] | cell viability ([7]; 100 nM) [%] | cell viability ([7]; 1000 nM) [%] | cell viability ([7]; 10000 nM) [%] | cell viability ([8]; 1 nM) [%] | cell viability ([8]; 10 nM) [%] | cell viability ([8]; 100 nM) [%] | cell viability ([8]; 1000 nM) [%] | cell viability ([8]; 10000 nM) [%] | cell viability ([9]; 1 nM) [%] | cell viability ([9]; 10 nM) [%] | cell viability ([9]; 100 nM) [%] | cell viability ([9]; 1000 nM) [%] | cell viability ([9]; 10000 nM) [%] | cell viability ([10]; 1 nM) [%] | cell viability ([10]; 10 nM) [%] | cell viability ([10]; 100 nM) [%] | cell viability ([10]; 1000 nM) [%] | cell viability ([10]; 10000 nM) [%] | relative viability EC50 [11] [µM] | relative viability EC50 [12] [µM] | relative viability EC50 [13] [µM] | relative viability EC50 [14] [µM] | relative viability EC50 [15] [µM] |
| --- | --- | --- | --- | --- | --- | --- | --- | --- | --- | --- | --- | --- | --- | --- | --- | --- | --- | --- | --- | --- | --- | --- | --- | --- | --- | --- | --- | --- | --- | --- | --- | --- | --- | --- | --- |
| COc1ccc2[nH]c(-c3ccccc3)c(CCNC(C)=O)c2c1 [2-phenylmelatonin] | 0 | 0 | 0 | 0 | 0.6 | 104 | 99.5 | 101 | 101 | 105 | 101 | 99.9 | 106 | 98.8 | 93.7 | 96.5 | 94.9 | 99.3 | 106 | 102 | 102 | 101 | 97.6 | 105 | 98.1 | 98.8 | 105 | 93 | 98 | 82.6 | > 10 | > 10 | > 10 | > 10 | > 10 |
| CC1(C)Oc2ccc(C#N)cc2[C@H](N(Cc2ncc[nH]2)c2ccc(Cl)cc2)[C@H]1O | 0 | 0 | 0 | 0 | 0 | 107 | 109 | 98 | 103 | 114 | 93.8 | 93 | 95.2 | 97.2 | 102 | 103 | 104 | 105 | 102 | 99.2 | 101 | 103 | 103 | 103 | 96.8 | 106 | 101 | 98 | 103 | 89.4 | > 10 | > 10 | > 10 | > 10 | > 10 |
| C[C@H]1NCc2cc(-c3ccc4c(=O)c(C(=O)O)cn(C5CC5)c4c3OC(F)F)ccc21 [garenoxacin] | 0 | 0 | 0 | 0 | 0 | 95.2 | 97.4 | 92.3 | 109 | 99 | 85.3 | 97 | 85.4 | 91.7 | 104 | 107 | 92.3 | 105 | 106 | 104 | 102 | 96.3 | 99.2 | 98 | 99.7 | 96.1 | 91.2 | 102 | 95.9 | 98.6 | > 10 | > 10 | > 10 | > 10 | > 10 |
| O=C1C=Cc2cc(Br)ccc2C1=O [bonaphthone] | 0 | 0 | 0.8 | 0.1 | 0 | 101 | 117 | 97.5 | 107 | 94.2 | 95.5 | 98.6 | 93.5 | 99.5 | 102 | 116 | 104 | 94.3 | 88 | 99.1 | 101 | 96.1 | 103 | 101 | 85.6 | 87.2 | 86.3 | 97.9 | 102 | 94.4 | > 10 | > 10 | > 10 | > 10 | > 10 |
| O=c1cc[nH]c(=O)[nH]1 [uracil] | 0 | 0 | 0 | 0 | 0 | 98.6 | 94 | 99.6 | 102 | 117 | 96.2 | 88.4 | 91.8 | 89.5 | 112 | 91.8 | 95.2 | 93 | 94.6 | 95.6 | 91.7 | 98.7 | 94.8 | 102 | 103 | 91.5 | 90.6 | 91.3 | 93.8 | 98.5 | > 10 | > 10 | > 10 | > 10 | > 10 |
| O=C(O)c1ccc(-c2c[nH]c3ncc(-c4ccccc4)cc23)cc1C1CCCC1 | 1.1 | 0 | 0 | 0 | 0 | 103 | 100 | 107 | 89.6 | 84.2 | 109 | 106 | 104 | 97 | 101 | 98.8 | 92.9 | 97.6 | 107 | 107 | 96.4 | 94.9 | 90.4 | 97.3 | 85.8 | 92.8 | 107 | 101 | 105 | 93.5 | > 10 | > 10 | > 10 | > 10 | > 10 |
| COC(=O)C(c1ccccc1)C1CCCCN1 (stereo not given) [METHYLPHENIDATE HYDROCHLORIDE] | 0 | 0 | 0 | 0 | 0 | 108 | 95.2 | 91.4 | 102 | 99 | 99.7 | 97.3 | 98.5 | 98.9 | 102 | 100 | 102 | 91.1 | 105 | 101 | 96.5 | 102 | 92.1 | 95.3 | 98.6 | 97 | 99.5 | 91.2 | 103 | 104 | > 10 | > 10 | > 10 | > 10 | > 10 |
| CCCCCCCCCCCCC/C=C/[C@@H](O)[C@@H](N)CO[P@](=O)(O)OCC[N+](C)(C)C [sphingosylphosphorylcholine] | 0 | 0 | 0 | 0 | 0 | 86 | 98.8 | 88.5 | 102 | 104 | 99.4 | 103 | 94.1 | 105 | 109 | 94.2 | 106 | 87.7 | 97.5 | 107 | 94 | 97 | 101 | 95.7 | 100 | 91 | 90.4 | 102 | 101 | 102 | > 10 | > 10 | > 10 | > 10 | > 10 |
| CCCCNc1ncc(-c2ccc(CN3CCOCC3)cn2)c(N[C@H]2CC[C@H](O)CC2)n1 [UNC2250] | 0 | 0 | 0 | 0 | 0 | 108 | 102 | 109 | 97.7 | 100 | 101 | 99.6 | 94.5 | 91.9 | 99.1 | 102 | 102 | 94.7 | 108 | 98.9 | 97.9 | 98.8 | 99.9 | 100 | 94.8 | 97.1 | 103 | 105 | 108 | 103 | > 10 | > 10 | > 10 | > 10 | > 10 |
| CC(C)Cc1ccc(C(C)C(=O)O)cc1 (stereo not given) [ibuprofen] | 0 | 0 | 0 | 0 | 0 | 110 ± 5.8 | 96.3 ± 1.8 | 104 ± 8.1 | 102 ± 5.4 | 108 ± 9.9 | 96.9 ± 0.57 | 96.9 ± 2.5 | 94.95 ± 0.071 | 92.2 ± 2.9 | 104.25 ± 0.071 | 105 ± 5.7 | 98.9 ± 6.4 | 93 ± 1.3 | 94.6 ± 8.3 | 102 ± 7.8 | 99.7 ± 3.4 | 103 ± 4.4 | 100.6 ± 0.96 | 102 ± 2.5 | 105 ± 2.5 | 97.4 ± 5.4 | 98.1 ± 3.7 | 95.9 ± 2 | 103 ± 4.1 | 104 ± 3.2 | > 10 | > 10 | > 10 | > 10 | > 10 |
| CN[C@@H](C)C(=O)N[C@H](C(=O)N1CCC[C@H]1C(=O)Nc1snnc1-c1ccccc1)C1CCCCC1 [GDC-0152] | 0 | 0 | 1.1 | 0 | 0 | 105 | 105 | 99.6 | 97.4 | 96 | 97 | 98.9 | 102 | 103 | 106 | 104 | 106 | 97.4 | 87.9 | 84.9 | 98.1 | 109 | 95.7 | 100 | 94.3 | 98.4 | 104 | 98.9 | 102 | 92.2 | > 10 | > 10 | > 10 | > 10 | > 10 |
| CCn1nc(C(=O)O)c(=O)c2cc3c(cc21)OCO3 [cinoxacin] | 0 | 0 | 0 | 0 | 0 | 100 | 86.1 | 110 | 85.1 | 103 | 91.4 | 102 | 92.1 | 89.4 | 102 | 99.3 | 98.6 | 89.4 | 93.9 | 98.7 | 95.1 | 97.3 | 94.2 | 98.5 | 99.5 | 99.3 | 100 | 100 | 106 | 98.3 | > 10 | > 10 | > 10 | > 10 | > 10 |
| CN(C)CC/C=C1/c2ccccc2COc2ccccc21 [doxepin] | 0 | 0 | 0 | 0 | 0 | 103 | 85.4 | 115 | 97.4 | 99.3 | 100 | 96.8 | 96.7 | 91.1 | 106 | 89 | 101 | 97.9 | 97.7 | 89.9 | 94.9 | 101 | 98.7 | 102 | 103 | 90.4 | 100 | 97.4 | 102 | 99.6 | > 10 | > 10 | > 10 | > 10 | > 10 |
| CCC(=O)NC[C@H](Cc1ccc(OCCc2nc(-c3ccccc3)oc2C)cc1)N/C(C)=C\C(=O)c1ccc(C(F)(F)F)cc1 [GW-6471] | 0 | 0 | 0 | 0 | 0 | 97.3 | 99.5 | 93.8 | 101 | 109 | 98.6 | 97.6 | 96.1 | 89.3 | 94.8 | 101 | 94.7 | 103 | 97.4 | 102 | 96.6 | 104 | 101 | 100 | 95.4 | 94.5 | 102 | 106 | 97.8 | 93.6 | > 10 | > 10 | > 10 | > 10 | > 10 |
